In patent publication US5332811A, “Etopside analogs” (priority 1991, dated 1994):
Where two headings read alike, the source gives them in different places.

Tests used:
KB cells = assay: Cytotoxicity: 50% reduction in cell number of KB cells after three day incubation; type: cell-based; conditions: Homo sapiens, 72 h, read-out: Cytotoxicity ID50 KB
Experimental: (§1) The compounds of the present invention were tested for their degree of inhibitory activity on human type II DNA topoisomerase, their effect on the formation of protein-linked DNA breakage, and their cytotoxicity. The inhibitory activity for compounds of the present invention correlated with the ability of the compounds to cause DNA strand breakage. […] For a description of the assays used with respect to the compounds listed in Tables 1 to 5 see Thurston, L.S., Irie, H., Tani, S., Han, F. S., Liu, Z. C., Cheng, Y.C., and Lee, K. H., Antitumor Agents 78. Inhibition of Human DNA Topoisomerase II by Podophyllotoxin and Peltatin Analogues, J. Med. Chem. 29, 1547 (1986), and the references cited therein, herein incorporated by reference.
in cell number after three day incubation.

[1] = target: Human DNA topoisomerase II; assay: DNA topoisomerase II assay (P4 unknotting reaction); type: biochemical; conditions: read-out: Inhibition of DNA Topoisomerase II Activity ID50
Experimental: as §1, with “cytotoxicity.” for “cytotoxicity. The inhibitory activity for compounds of the present invention correlated with the ability of the compounds to cause DNA strand breakage.”
Human DNA topoisomerase II was isolated from peripheral blast cells of a patient with acute leukemia. The isolation procedure is described in Thurston, L., Imakura, Y., Haruna, M., Li, Z. C., Liu, S. Y., and Lee, K. H., J. Med. Chem., 31, […] (1988) and is a partial combination of the procedure described in Goto, T., Laiapia, P. and Wang, J., J. Biol. Chem., 259, 10422 (1984) and Halligan, B., Edwards, K., and Liu, L., J. Biol. Chem., 260, 2475 (1985) which are herein specifically incorporated by reference.
Drugs were dissolved in Me2 SO at a concentration of 20 mM as the stock solution and diluted before use with water to the desired concentration of each drug.
The P4 unknotting reaction was a modification of the procedure described by Hseih, T., J. Biol. Chem., 258, 8413 (1985), which is herein specifically incorporated by reference.
The reaction mixture (20 μL), which contained 50 mM HEPES, pH 7.0, 50 mM KCI, 100 mM NaCl, 0.1 mM EDTA, 10 mM MgCl2, 1.0 mM ATP, 50 μg/mL bovine serum albumin, 0.4 μg P4knotted DNA, and enzyme, was incubated with or without drugs.
The reaction mixture was incubated at 37° C. for 30 min and terminated by adding 5.0 μl of a stop solution (2% sodium dodecyl sulfate, 20% glycerol, 0.05% bromophenol blue). These samples were loaded onto a 1% agarose gel and electrophoresed at 55 V overnight with an electrophoresis buffer that contained 90 mM Tris-boric acid, pH 8.3, and 2.5 mM EDTA. At completion, the gel was stained in 0.5 μg/mL of ethidium bromide. Then a photograph was taken of the DNA bands visualized with fluorescence induced by a long-wavelength UV lamp. […]

[2] = Table 1, KB cells, three day incubation
[3] = Table 1, based on degree of inhibition at 25, 50, and 100 μM
[4] = Table 4, KB cells, three day incubation
[5] = Table 4, based on degree of inhibition at 10, 25, 50 and 100 μM
[6] = Table 5, based on degree of inhibition at 10, 25, 50 and 100 μM
[7] = Table 3, KB cells, three day incubation
[8] = Table 3, based on degree of inhibition at 20, 25, 50 and 100 μM
[9] = Table 2, KB cells, three day incubation
[10] = Table 2, based on degree of inhibition at 10, 25, 50 and 100 μM
[11] = Table 5, KB cells, three day incubation

COc1cc(C2c3cc4c(cc3C(NCc3ccccc3[N+](=O)[O-])C3COC(=O)C23)OCO4)cc(OC)c1O (stereo not drawn) [Example 6, 4'-O-Demethyl-4β-(2"-nitrobenzylamino)-4-desoxypodophyllotoxin]
IC50 (KB cells; [2]): 1.8 µM | IC50 [1, 3]: 50 µM

COc1cc(C2c3cc4c(cc3C(NCc3cccc([N+](=O)[O-])c3)C3COC(=O)C23)OCO4)cc(OC)c1O (stereo not drawn) [Example 5, 4'-O-Demethyl-4β-(3"-nitrobenzylamino)-4-desoxypodophyllotoxin]
IC50 (KB cells; [2]): < 0.4 µM | IC50 [1, 3]: 25 µM

COc1cc([C@@H]2c3cc4c(cc3[C@@H](NC(=O)c3ccccc3O)[C@H]3COC(=O)[C@H]23)OCO4)cc(OC)c1O [Example 35, 4'-O-Demethyl-4β-[(2-hydroxylbenzoyl)amino]-4-desoxypodophyllotoxin]
IC50 (KB cells; [4]): < 1 µM | IC50 [1, 5]: 50 µM

COC1=CC([C@@H]2c3cc4c(cc3[C@@H](Nc3ccc([N+](=O)[O-])cc3)[C@H]3COC(=O)[C@@H]32)OCO4)=CC(=O)C1=O [Example 44, 3',4'-Didemethoxy-3',4'-dioxo-4β-(4"-nitroanilino)-4-desoxypodophyllotoxin]
IC50 (KB cells; KB): 1.5 µM | IC50 [1, 6]: 10 µM

COc1cc([C@@H]2c3cc(O)c(O)cc3[C@@H](Nc3ccc(F)cc3)[C@H]3COC(=O)[C@H]23)cc(OC)c1O [Example 30, 6,7-O-Demethylene-4'-O-demethyl-4β-(fluoroanilino)-4-desoxypodophyllotoxin]
IC50 (KB cells; [7]): > 1 µM | IC50 [1, 8]: 25 µM

COc1cc(C2c3cc4c(cc3C(Nc3ccccc3)C3COC(=O)C23)OCO4)cc(O)c1O (stereo not drawn) [Example 17, 3',4'-O-Didemethyl-4β-anilino-4-desoxypodophyllotoxin]
IC50 (KB cells; [9]): 1.7 µM | IC50 [1, 10]: 25 µM

COc1cc2c(cc1OC)[C@@H](Nc1ccc(C#N)cc1)[C@H]1COC(=O)[C@@H]1[C@@H]2c1cc(OC)c(O)c(OC)c1 [Example 32, 6,7-O-demethylene-6,7-O-dimethyl-4'-O-demethyl-4β-(4"-cyanoanilino)-4-desoxypodophyllotoxin]
IC50 (KB cells; [7]): < 0.4 µM | IC50 [1, 8]: 50 µM

COc1cc(CNC2c3cc4c(cc3C(c3cc(OC)c(O)c(OC)c3)C3C(=O)OCC23)OCO4)cc(OC)c1 (stereo not drawn) [Example 12, 4'-O-Demethyl-4β-(3",5"-dimethoxybenzylamino)-4-desoxypodophyllotoxin]
IC50 (KB cells; [2]): 1.7 µM | IC50 [1, 3]: 100 µM

COc1cc([C@@H]2c3cc4c(cc3[C@@H](NC(=O)c3ccccc3)[C@H]3COC(=O)[C@H]23)OCO4)cc(OC)c1O [Example 34, 4'-O-Demethyl-4β-(benzoylamino)-4-desoxypodophyllotoxin]
IC50 (KB cells; [4]): 0.64 µM | IC50 [1, 5]: > 50 µM

COc1cc(C2c3cc4c(cc3C(NCc3ccc(F)cc3)C3COC(=O)C23)OCO4)cc(OC)c1O (stereo not drawn) [Example 9, 4'-O-Demethyl-4β-(4"-fluorobenzylamino)-4-desoxypodophyllotoxin]
IC50 (KB cells; [2]): > 4 µM | IC50 [1, 3]: 50 µM

COc1cc([C@@H]2c3cc4c(cc3[C@@H](NC(=O)c3cccc(C#N)c3)[C@H]3COC(=O)[C@H]23)OCO4)cc(OC)c1O [Example 39, 4'-O-Demethyl-4β-[(3"-cyanobenzoyl)amino]-4-desoxypodophyllotoxin]
IC50 (KB cells; [4]): 1 µM | IC50 [1, 5]: 50 µM

COc1cc(C2c3cc4c(cc3C(Nc3cccc(O)c3)C3COC(=O)C23)OCO4)cc(O)c1O (stereo not drawn) [Example 19, 3',4'-O-Didemethyl-4β-(3"-hydroxyanilino)-4-desoxypodophyllotoxin]
IC50 (KB cells; [9]): 1.6 µM | IC50 [1, 10]: 10 µM

COC(=O)c1cccc(N[C@@H]2c3cc4c(cc3[C@@H](c3cc(O)c(O)c(OC)c3)[C@H]3C(=O)OC[C@@H]32)OCO4)c1 [Example 21, 3'.4'-O-Didemethyl-4β-(3"-methoxycarbonylanilino)-4-desoxypodophyllotoxin]
IC50 (KB cells; [9]): 1.9 µM | IC50 [1, 10]: 1 µM

COc1cc(C2c3cc4c(cc3C(NCc3cccc(N)c3)C3COC(=O)C23)OCO4)cc(OC)c1O (stereo not drawn) [Example 13, 4'-O-Demethyl-4β-(3"-aminobenzylamino)-4-desoxypodophyllotoxin]
IC50 (KB cells; [2]): < 0.4 µM | IC50 [1, 3]: 25 µM

COc1cc([C@@H]2c3cc(O)c(O)cc3[C@@H](Nc3ccccc3)[C@H]3COC(=O)[C@H]23)cc(OC)c1O [Example 26, 6,7-O-Demethylene-4'-O-demethyl-4β-anilino-4-desoxypophyllotoxin]
IC50 (KB cells; KB): > 1 µM | IC50 [1, 8]: 25 µM

CCOC(=O)c1ccc(N[C@@H]2c3cc(O)c(O)cc3[C@@H](c3cc(OC)c(O)c(OC)c3)[C@H]3C(=O)OC[C@@H]32)cc1 [Example 28, 6,7-O-Demethylene-4'-O-demethyl-4β-[4"-(ethoxycarbonyl)anilino]-4-desoxypodophyllotoxin]
IC50 (KB cells; [7]): 0.78 µM | IC50 [1, 8]: 20 µM

COC1=CC([C@@H]2c3cc4c(cc3[C@@H](Nc3ccc(F)cc3)[C@H]3COC(=O)[C@@H]32)OCO4)=CC(=O)C1=O [Example 43, 3',4'-Didemethoxy-3',4'-dioxo-4β-(4"-fluoroanilino)-4-desoxypodophyllotoxin]
IC50 (KB cells; [11]): > 2.1 µM | IC50 [1, 6]: 25 µM

COc1cc(C2c3cc4c(cc3C(Nc3ccc5c(c3)OCCO5)C3COC(=O)C23)OCO4)cc(O)c1O (centres unmarked) [Example 20]
IC50 (KB cells; [9]): 2.3 µM | IC50 [1, 10]: 10 µM

COc1cc([C@@H]2c3cc4c(cc3[C@@H](NC(=O)c3ccc(C(C)=O)cc3)[C@H]3COC(=O)[C@H]23)OCO4)cc(OC)c1O [Example 38]
IC50 (KB cells; [4]): 1 µM | IC50 [1, 5]: 50 µM

COc1cc2c(cc1OC)[C@@H](Nc1ccc(F)cc1)[C@H]1COC(=O)[C@@H]1[C@@H]2c1cc(OC)c(O)c(OC)c1 [Example 31, 6,7-O-demethylene-6,7-O-dimethyl-4'-O-demethyl-4β-(4"-fluoroanilino)-4-desoxypodophyllotoxin]
IC50 (KB cells; [7]): 0.4 µM | IC50 [1, 8]: 50 µM

CCOC(=O)c1ccc(N[C@@H]2c3cc4c(cc3[C@@H](C3=CC(=O)C(=O)C(OC)=C3)[C@H]3C(=O)OC[C@@H]32)OCO4)cc1 [Example 45, 3',4'-Didemethoxy-3',4'-dioxo-4β-[(4"-ethoxycarbonyl)anilino]-4-desoxypodophyllotoxin]
IC50 (KB cells; [11]): 1.1 µM | IC50 [1, 6]: 25 µM

COc1cc([C@@H]2c3cc4c(cc3[C@@H](NC(=O)c3cccc([N+](=O)[O-])c3)[C@H]3COC(=O)[C@H]23)OCO4)cc(OC)c1O [Example 41, 4'-O-Demethyl-4β-[(3"-nitrobenzoyl)amino]-4-desoxypodophyllotoxin]
IC50 (KB cells; [4]): 0.33 µM | IC50 [1, 5]: 10 µM

COc1cc([C@@H]2c3cc(O)c(O)cc3[C@@H](Nc3ccc(C#N)cc3)[C@H]3COC(=O)[C@H]23)cc(OC)c1O [Example 29, 6,7-O-Demethylene-4'-O-demethyl-4β-(cyanoanilino)-4-deoxypodophyllotoxin]
IC50 (KB cells; [7]): 1 µM | IC50 [1, 8]: 20 µM

COc1cc(C2c3cc4c(cc3C(Nc3ccc(C#N)cc3)C3COC(=O)C23)OCO4)cc(O)c1O (stereo not drawn) [Example 22, 3'.4'-O-Didemethyl-4β-(4"-cyanoanilino)-4-desoxypodophyllotoxin]
IC50 (KB cells; [9]): 1.5 µM | IC50 [1, 10]: 10 µM

COc1cc(C2c3cc4c(cc3C(Nc3ccc(F)cc3)C3COC(=O)C23)OCO4)cc(O)c1O (stereo not drawn) [Example 18, 3',4'-O-didemethyl-4β-(4"-floroanilino)-4-desoxypodophyllotoxin]
IC50 (KB cells; [9]): 3 µM | IC50 [1, 10]: 10 µM
